Test results: ChEMBL document CHEMBL4420062, “Tfpi inhibitors and methods of use” (2013)
Where a SMILES comes first, the peptide text is derived from it. [ ]: non-standard residue; d: D form. The star is where a group is joined. Tle = CC(C)(C)[C@H](N)C(=O)O; Hexanoyl = CCCCCC(=O)*; Aib = CC(C)(N)C(=O)O; Acm = CC(=O)NC*

Test: Stability in human plasma assessed as parent compound remaining after 24 hrs
Assay type: ADME, cell-free
Settings: read-out: Stability

SMILES | remaining at 24 h [%]
CCN1C(=O)CC(SC[C@H](NC(=O)[C@H](CC(C)C)NC(=O)[C@H](CCCCN)NC(=O)[C@H](C)NC(=O)C(C)(C)NC(=O)[C@H](CC(C)C)NC(=O)[C@H](CCCNC(=N)N)NC(=O)[C@H](CCC(=O)O)NC(=O)[C@H](Cc2ccccc2)NC(=O)[C@H](Cc2ccc(O)cc2)NC(=O)CNC(=O)[C@H](Cc2cnc[nH]2)NC(=O)[C@@H](NC(=O)[C@H](Cc2cnc[nH]2)NC(=O)[C@@H](NC(=O)[C@H](CC(N)=O)NC(=O)[C@H]2CCCN2C(=O)[C@H](CCCCN)NC(=O)[C@H](CO)NC(=O)[C@H](CCC(N)=O)NC(=O)[C@H](Cc2ccccc2)NC(C)=O)C(C)C)C(C)C)C(N)=O)C1=O (stereo partly specified) | 18.6
CC(C)C[C@H](NC(=O)[C@H](CCCCN)NC(=O)[C@H](C)NC(=O)C(C)(C)NC(=O)[C@H](CC(C)C)NC(=O)[C@H](CCCNC(=N)N)NC(=O)[C@H](CCC(=O)O)NC(=O)[C@H](Cc1ccccc1)NC(=O)[C@H](Cc1ccc(O)cc1)NC(=O)[C@@H](C)NC(=O)[C@H](CC(=O)O)NC(=O)[C@@H](NC(=O)[C@H](Cc1cnc[nH]1)NC(=O)[C@@H](NC(=O)[C@H](CC(N)=O)NC(=O)[C@H]1CCCN1C(=O)[C@H](CCCCN)NC(=O)[C@H](CO)NC(=O)[C@H](CCC(N)=O)NC(=O)[C@H](Cc1ccccc1)NC(=O)Cc1ccc2ccccc2c1)C(C)C)C(C)(C)C)C(N)=O | 108
CC(C)C[C@@H]1NC(=O)[C@H](CCCCN)NC(=O)[C@H](C)NC(=O)C(C)(C)NC(=O)[C@H](CC(C)C)NC(=O)[C@H](CCCNC(=N)N)NC(=O)[C@H](CCC(=O)O)NC(=O)[C@H](Cc2ccccc2)NC(=O)[C@H](Cc2ccc(O)cc2)NC(=O)CNC(=O)[C@H](CC(=O)O)NC(=O)[C@H](C(C)C)NC(=O)[C@H](Cc2cnc[nH]2)NC(=O)[C@H](C(C)C)NC(=O)[C@H](CC(N)=O)NC(=O)[C@H]2CCCN2C(=O)[C@H](CCCCN)NC(=O)[C@H](CO)NC(=O)[C@H](CCC(N)=O)NC(=O)[C@H](Cc2ccccc2)NC(=O)CCOCCOCCOCCOCCNC1=O | 55.9

More lines, now with the values ahead:

remaining at 24 h [%] | SMILES
40.7 | CC(=O)N[C@@H](Cc1ccccc1)C(=O)N[C@@H](CCC(N)=O)C(=O)N[C@@H](CO)C(=O)N[C@@H](CCCCN)C(=O)N1CCC[C@@H]1C(=O)N[C@@H](CC(N)=O)C(=O)N[C@H](C(=O)N[C@@H](Cc1cnc[nH]1)C(=O)N[C@H](C(=O)N1CCC[C@H]1C(=O)N[C@@H]1CSSCC[C@@H](C(=O)N[C@@H](CCCNC(=N)N)C(=O)N[C@@H](CC(C)C)C(=O)NC(C)(C)C(=O)N[C@@H](C)C(=O)N[C@@H](CCCCN)C(=O)N[C@@H](CC(C)C)C(N)=O)NC(=O)[C@H](Cc2ccccc2)NC(=O)[C@H](Cc2ccc(O)cc2)NC1=O)C(C)C)C(C)C
107 | CCCCCC(=O)N[C@@H](Cc1ccccc1)C(=O)N[C@@H](CCC(N)=O)C(=O)N[C@@H](CO)C(=O)N[C@@H](CCCCN)C(=O)N1CCC[C@@H]1C(=O)N[C@@H](CSCNC(C)=O)C(=O)N[C@H](C(=O)N[C@@H](Cc1cnc[nH]1)C(=O)N[C@H](C(=O)N[C@@H](CC(=O)O)C(=O)N[C@H](C)C(=O)N[C@@H](Cc1ccc(O)cc1)C(=O)N[C@@H](Cc1ccccc1)C(=O)N[C@@H](CCC(=O)O)C(=O)N[C@@H](CCCNC(=N)N)C(=O)N[C@@H](CC(C)C)C(=O)NC(C)(C)C(=O)N[C@@H](C)C(=O)N[C@@H](CCCCN)C(=O)N[C@@H](CC(C)C)C(=O)N[C@@H](CSC1CC(=O)N(CC)C1=O)C(=O)O)C(C)(C)C)C(C)C (stereo partly specified)
90.1 to 93 | CCCCCC(=O)N[C@@H](Cc1ccccc1)C(=O)N[C@@H](CCC(N)=O)C(=O)N[C@@H](CO)C(=O)N[C@@H](CCCCN)C(=O)N1CCC[C@@H]1C(=O)N[C@@H](CSCNC(C)=O)C(=O)N[C@H](C(=O)N[C@@H](Cc1cnc[nH]1)C(=O)N[C@H](C(=O)N[C@@H](CC(=O)O)C(=O)N[C@H](C)C(=O)N[C@@H](Cc1ccc(O)cc1)C(=O)N[C@@H](Cc1ccccc1)C(=O)N[C@@H](CCC(=O)O)C(=O)N[C@@H](CCCNC(=N)N)C(=O)N[C@@H](CC(C)C)C(=O)NC(C)(C)C(=O)N[C@@H](C)C(=O)N[C@@H](CCCCN)C(=O)N[C@@H](CC(C)C)C(N)=O)C(C)(C)C)C(C)C (Hexanoyl-FQSK[dP]C(Acm)VH[Tle]D[dA]YFERL[Aib]AKL-NH2)
